Results published in publication PMC5318439, “The Novel Toll-Like Receptor 2 Agonist SUP3 Enhances Antigen Presentation and T Cell Activation by Dendritic Cells” (Frontiers in Immunology, 2017).
Where a SMILES comes first, the peptide text is derived from it. The star is where a group is joined. X1 = CCCCCCCCCCCCCCNC(=O)OC[C@H](C*)OC(=O)NCCCCCCCCCCCCCC; Palmitoyl = CCCCCCCCCCCCCCCC(=O)*

Columns and labels:
CD8^+ cDCs = experiment: Antigen cross-presentation by splenic CD8+ cDCs to OT-I CD8+ T cells in vitro; assay type: cell-based, mice; conditions: 200 nM; SUP3 versus Pam3
Protocol: Antigen presentation assays were performed as previously described ([38]). Briefly, ovalbumin (OVA) (10 µg/mL; Sigma A7641) pulsed cDCs were stimulated with or without TLR agonists for 4 h. OT-I CD8^+ T cells and OT-II CD4^+ T cells were purified and then labeled by carboxyfluorescein diacetate succinimidyl ester (CFSE) (1 µM; Molecular Probes C34554). CD8^+ cDCs were cocultured with OT-I CD8^+ T cells for 60 h, whereas CD11b^+ cDCs were cocultured with OT-II CD4^+ T cells for 96 h, both in the presence of granulocyte-macrophage colony-stimulating factor (GM-CSF) (20 ng/mL; Peprotech 315-03). Proliferated OT-I or OT-II T cells were defined as diluted CFSE signal analyzed by flow cytometry. The numbers of T cells were counted by AccuCheck counting beads (Molecular Probes PCB100). […] Cells were washed twice with cold medium and analyzed by flow cytometry.
Figure 3 SUP3 facilitated cross-presentation of ovalbumin (OVA) antigen by CD8^+ conventional dendritic cells (cDCs) in vitro. […] Cells were washed and cocultured with carboxyfluorescein diacetate succinimidyl ester (CFSE)-labeled OT-I CD8^+ T cells for 60 h and analyzed by flow cytometry. (A) The dividing OT-I cells were measured by reduced level of CFSE-labeling. […] (B) Absolute numbers of proliferated OT-I T cells were calculated. (C) Interferon-γ from the supernatant of coculture was determined by ELISA 24 h later. […]

RAW 264.7 cells = experiment: TNFα production by WT RAW 264.7 cells; assay type: cell-based; conditions: 500 nM, 8 h
Protocol: Splenic DCs (5 × 10^5 cells/mL) were stimulated by Pam3 (200 nM), SUP3 (200 nM), or CpG ODN 1668 (20 nM; Adipogen IAX-200-001) in the GM-CSF (20 ng/mL) supplemented medium for indicated periods. Cell culture supernatants were harvested at indicated time points and stored at −40°C. […] For in vivo administration, Pam3 (2 nmol per mouse), SUP3 (2 nmol per mouse), or LPS (1 µg per mouse) were intravenously (i.v.) injected via tail veins. Serum was obtained through tail vein bleeding and centrifuged after coagulation and stored at −40°C. Cytokines (IL-6, eBioscience 88-7064; TNFα, eBioscience 88-7324; IL-12p40, BioLegend 431604), chemokine (MIP1α, R&D Systems DY450-05), and total IgM (eBioscience, 88-50470) were quantified by ELISA kits following the instructions of manufacturers.
Figure 1 Specificity and activity of novel TLR2 agonist SUP3. (A) Schematic chemical structure of SUP3. (B) Surface expression of TLR2 in wild-type (WT) and Tlr2^−/− RAW 264.7 cell lines. Gray shadows represented isotype control and black lines represented TLR2. (C) TNFα production by RAW 264.7 cells upon stimulation with lipopolysaccharide (LPS) (1 µg/mL), Pam3CSK4 (Pam3 hereafter) (500 nM), or SUP3 (500 nM) for 8 h. […] The production of cytokines IL-6 and TNFα in culture supernatant was determined by ELISA. *p < 0.05, ****p < 0.0001, “n.s.” indicates statistically non-significant.

Molecule	enhancement of cross-presentation by CD8+ cDCs in vitro (CD8^+ cDCs)	TNFα production by WT RAW cells (RAW 264.7 cells)
CCCCCCCCCCCCCCCC(=O)N[C@@H](CSC[C@@H](COC(=O)NCCCCCCCCCCCCCC)OC(=O)NCCCCCCCCCCCCCC)C(=O)NCC(=O)N[C@@H](CCCCN)C(=O)N[C@@H](CCCCN)C(=O)N[C@@H](CCCCN)C(=O)O [SUP3, (2S,5S,8S,14R,18R)-2,5,8-tris(4-aminobutyl)-4,7,10,13,21-pentaoxo-14-palmitamido-18-((tetradecylcarbamoyl)oxy)-20-oxa-16-thia-3,6,9,12,22-pentaazahexatriacontan-1-oic acid] (Palmitoyl-C(X1)GKKK-OH)	comparable	large amount of TNFα production
Pam3CSK4 [reference compound]	comparable	large amount of TNFα production
